Columns and labels:
[1] = system: whole-cell calcium channel currents in isolated cockroach neurons; settings: 0.1 µM; cited from earlier work
[2] = system: insect versus vertebrate calcium channels
mouse sensory neuron ICa = format: cell-based
[3] = system: bee brain calcium channel (ICa); format: cell-based, Apis mellifera

Row | Substance | inhibition of whole-cell calcium channel currents [1] [%] | preference for insect versus vertebrate calcium channels [2] [fold] | maximum ICa inhibition (mouse sensory neuron ICa) [%] | EC50 (mouse sensory neuron ICa; read-out: EC50 for inhibition of a component of ICa) [nM] | concentration for maximum inhibition of ICa [3] [nM] | EC50 ([3]; read-out: EC50 for inhibition of ICa) [nM]
1 | omega-atracotoxin-Hv1a [ω-ACTX-Hv1a] | 25±10 | – | – | – | – | –
2 | ω-agatoxin-IVA (KKKCIAKDYGRCKWGGTPCCRGRGCICSIMGTNCECKPRLIMEGLGLA) | – | 2 | ~40 | ~20 | > 100 | 10

Source: US8362201B2 (priority 2000, dated 2013)
